Data on three compounds can be found in patent US6469028B1, “Synthesis and use of retinoid compounds having negative hormone and/or anatgonist activities” (Allergan, Inc., priority 1995, dated 2002).

One assay concerns primary RPE cells. The assay is described as follows: Example 27: proliferation of primary RPE cells with TR-1. In kind it is cell-based, Human. The following applies: five days of treatment. As to the method: Human primary RPE cells are obtained and cultured according to standard methods. The cultured cells are divided into four groups and treated as follows. Group 1 receives vehicle alone (ethanol). Group 2 is treated with 13-cis retinoic acid at concentrations ranging from 10^−11 to 10^−6 M. Group 3 is treated with the thyroid hormone inverse agonist TR-1 at concentrations ranging from 10^−11 to […]. Group 4 is co-treated with 13-cis retinoic acid at concentrations ranging from 10^−11 to 10^−6 M TR-1. Cells are refed with fresh growth medium and re-treated with the appropriate compound every two days for a total of five days of treatment. The proliferation rate over the duration of the experiment is quantitated via measurement of the cell number in the cultures using an electric cell counter.

Assay [1] has as its system retinal pigment epithelium (RPE) cells. In words: Example 19: proliferation of primary retinal pigment epithelium cultures. The assay is classed as cell-based, human. The note with it: for RPE cell growth: single agent, 10^−12 to 10^−6M (FIG. 18). Here is the method:
Primary cultures of human retinal pigment epithelium (RPE) were established according to the method described by Campochiaro et al. in Invest. Opthal & Vis. Sci. 32:65 (1991). 5×10^4 cells were plated in 16-mm wells of 24-well multiwell plates in DMEM (Gibco) containing 5% FBS. […] Cells were fed with fresh media containing the appropriate concentrations of these compounds every two days for a total of five days of treatment. Cells were removed from the plates by gentle digestion with trypsin and the number of cells was counted with an electronic cell counter.
AGN 193109 was tested for its ability to potentiate the anti-proliferative effect of 13-cis retinoic acid (13-cis RA) in primary RPE cultures using conditions and techniques to measure RPE cell proliferation described above. […] More particularly, 13-cis RA is useful in the treatment of several disease states, including acne (Peck et al. N. Engl. J. Med. 300:329 (1977); Jones et al. Br. J. Dermatol. 108:333 (1980)), and squamous cell carcinoma of the skin and cervix in combination treatment with interferon 2α (Lippman et al. J. Natl. Cancer Inst. 84:241 (1992); Moore et al. Seminars in Hematology 31:31 (1994)).
We next tested the ability of AGN 193109 to potentiate the activities of other nuclear receptor hormones in primary RPE cell cultures. Dexamethasone, a synthetic glucocorticoid receptor agonist, is one member of a class of compounds that have been used clinically for their potent anti-inflammatory and immunosuppressive properties. Thyroid hormone (T3; […]) is a natural thyroid hormone receptor agonist used primarily for hormone replacement therapy in the treatment of hypothyroidism.

Assay [2] relates to patients having retinal detachment resulting from PVR. The note with it: 40 mg oral 13-cis retinoic acid twice daily for four weeks.
For the next assay, the target named is T1, RARα (Homo sapiens, UniProt P10276).
T1 sequence (P10276 1-462): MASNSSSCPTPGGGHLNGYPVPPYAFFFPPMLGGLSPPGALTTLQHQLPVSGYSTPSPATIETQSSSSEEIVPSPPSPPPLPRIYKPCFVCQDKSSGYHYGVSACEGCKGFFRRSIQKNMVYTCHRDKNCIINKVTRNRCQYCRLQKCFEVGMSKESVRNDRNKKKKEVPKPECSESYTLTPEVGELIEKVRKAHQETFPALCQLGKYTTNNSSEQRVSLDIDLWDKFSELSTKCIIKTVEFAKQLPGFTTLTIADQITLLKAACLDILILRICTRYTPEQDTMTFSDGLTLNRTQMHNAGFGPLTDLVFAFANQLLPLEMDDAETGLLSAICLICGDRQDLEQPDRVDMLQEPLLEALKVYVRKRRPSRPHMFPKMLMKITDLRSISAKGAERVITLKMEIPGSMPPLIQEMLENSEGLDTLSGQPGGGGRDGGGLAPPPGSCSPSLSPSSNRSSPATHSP
The assay is described as follows: Example 8: protease protection analysis. In kind it is biochemical. Also noted: host or cells: TNT-coupled reticulocyte lysate in vitro transcription-translation. The following applies: ATRA and AGN 193109 100 nM, AGN 193583 1000 nM; trypsin 25, 50 or 100 μg/ml, 10 minutes. Here is the method:
A plasmid constructed in the vector pGEM3Z (Pharmacia) and containing the RAR-α cDNA (Giguere et al. Nature 330:624 (1987)), was used in connection with the TNT-coupled reticulocyte lysate in vitro transcription-translation system (Promega) to prepare [^35S]-methionine labeled RAR-α. Limited proteolytic digestion of the labeled protein RAR-α was carried out according to the method described by Keidel et al. in Mol. Cell. Biol. 14:287 (1994). […] After ligand binding, 1 μl of appropriately concentrated trypsin was added to the mixture to give final concentrations of 25, 50 or 100 μg/ml. Samples were incubated at room temperature for 10 minutes and trypsin digestion stopped by addition of SDS-sample buffer. Samples were subjected to polyacrylamide gel electrophoresis and autoradiographed according to standard procedures.

For another assay, the system named is rabbits. The assay is described as follows: Example 24: rabbit model of proliferative vitreoretinopathy (PVR). The assay is classed as in vivo.
For assay [3], the system named is RAR-γ-VP-16 with ER-RXR-α. The following applies: no other retinoid added, 18 hours.
In a further assay the test system is ER-RAR-α. The assay is described as follows: Example 10: repression of basal gene activity, ERE-tk-Luc, CV-1 cells. The assay is classed as cell-based. The following applies: 10^−9 to 10^−6 M, 18 hours, single agent. The source says: (§1) More specifically, these procedures employed the ER-RAR chimeric receptor and ERE-tk-Luc reporter system. The ERE-tk-Luc plasmid includes the region −397 to −87 of the estrogen responsive 5′-flanking region of the Xenopus vitellogenin A2 gene, described by Klein-Hitpass, et al. in Cell 46:1053-1061 (1986), ligated upstream of the HSV thymidine kinase promoter and luciferase reporter gene of plasmid tk-Luc. The ER-RAR chimeric receptors consisted of the estrogen receptor DNA binding domain fused to the “D-E-F” domain of the RARs. Those having ordinary skill in the art appreciate this “D-E-F” domain functions to bind retinoid, to provide a retinoid inducible transactivation function and to provide a contact site for heterodimerization with RXR. Thus, luciferase expression in this reporter system was dependent on activation of the transfected chimeric receptor construct.
(§2) CV-1 cells were co-transfected with the ERE-tk-Luc reporter plasmid and either ER-RAR-α, ER-RAR-β or ER-RAR-γ expression plasmids. The ERE-tk-Luc plasmid contained the estrogen-responsive promoter element of the Xenopus laevis vitellogenin A2 gene and was substantially identical to the reporter plasmid described by Klein-Hitpass et al. in Cell 46:1053 (1986), except that the CAT reporter gene was substituted by a polynucleotide sequence encoding luciferase. The ER-RAR-α, ER-RARβ and ER-RAR-γ chimeric receptor-encoding polynucleotides employed in the co-transfection have been described by Graupner et al. in Biochem. Biophys. Res. Comm. 179:1554 (1991). […] Calcium phosphate transfections were carried out exactly as described in Example 6 using 0.5 μg/well of reporter plasmid and either 0.05 μg, 0.10 μg or 0.2 μg/well of receptor plasmid. […] Cell lysates and luciferase activity measurements were performed as described in Example 6.

For another assay, the system named is ER-RAR-γ. The assay is described as above. The assay is classed as cell-based. The note with it: 10^−9 to 10^−6 M, 18 hours, single agent.
Excerpt: as §1, §2

A further assay has as its system ER-RAR-β. The description is as above. The assay is classed as cell-based. The note with it: 10^−9 to 10^−6 M, 18 hours, single agent.
Excerpt: as §1, §2

Assay [4] deals with cultured cervical carcinoma cells. In words: Example 23: cultured cervical carcinoma cells from a patient biopsy. The following applies: 10^−10 to 10^−6 M. In kind it is cell-based. The source says: A patient presenting with an advanced cervical carcinoma is first identified. A cervical biopsy is obtained according to methods that will be familiar to one having ordinary skill in the art. Cells from the explanted tumor are propagated in tissue culture according to standard techniques to provide cell numbers sufficient to allow division into three sample groups. Culture conditions described by Agarwal et al. in Cancer Res. 54:2108 (1994) are employed for this purpose. The first group is reserved as a control and receives vehicle alone (ethanol). The second group is treated with the RAR agonist retinoic acid at a concentration of from 10^−10 to 10^−6 M. The third group is treated with AGN 193109 at doses ranging from 10^−10 to 10^−6 M. Cells are fed with fresh growth medium daily and are provided with the retinoids described above as appropriate for each sample group. Cells are counted after three days using an electric cell counter.

For a further assay, the system named is T3R-VP-16. The assay is described as follows: Example 26: thyroid hormone receptor negative hormone assay, CV-1 cells. In kind it is cell-based. The following applies: CV-1 cells with ERE-tk-Luc, ER-RXRα and T3R-VP-16. The source says: CV-1 cells are co-transfected with the luciferase reporter plasmid ERE-tk-Luc and the plasmids ER-RXR-α and T3R-VP-16. T3R-VP-16 is identical to the plasmid RAR-γ-VP-16, except the RAR-γ moiety of RAR-γ-VP-16 has been substituted by the thyroid hormone receptor cDNA. As such, T3R-VP-16 expresses a fusion protein containing the activation domain of HSV VP-16 in frame with the N-terminus of the thyroid hormone receptor. Standard transfection and cell culture methods are employed for this purpose. After transfection, cells are rinsed and fed with growth medium containing 10% fetal calf serum which has been extracted with activated charcoal. Cells are treated with vehicle alone (ethanol), thyroid hormone (10^−9 to 10^−10 M), or compound TR-1 (10^−9 to 10^−6 M). […] Further, TR-1 is capable of antagonizing thyroid hormone mediated transactivation and as such is a thyroid receptor antagonist.

The structures appear in SMILES notation.

For the compound `CC1=C(/C=C/C(C)=C/C=C/C(C)=C\C(=O)O)C(C)(C)CCC1` [13-cis RA, 13-cis retinoic acid, reference compound], the “cellular proliferation, single agent” value in the assay on primary RPE cells is recorded as “dose dependent decrease in cell number”. Further, in assay [1] (13-cis RA 10^−12 to 10^−6M), the “effectiveness compared with ATRA” value is on record as “approximately two orders of magnitude less effective”. Also, the RPE cell growth result in assay [1] is “effectively inhibited RPE cell growth”. Further, in assay [2], the “incidence of retinal redetachment” value is listed as “significantly reduced incidence of retinal redetachment”.

Regarding `CC1=C(/C=C/C(C)=C/C=C/C(C)=C/C(=O)O)C(C)(C)CCC1` [ATRA, all-trans-retinoic acid, reference compound], the “pattern of trypsin sensitivity of labeled RAR-α after prebinding” value on RARα is given as “two major protease resistant species”. Moreover, the “frequency and severity of tractional retinal detachment” value with rabbits (retinoic acid 100 μg intravitreal, single agent) was “significantly reduced frequency and severity of retinal detachment”. For the same compound, in assay [1], the RPE cell growth entry is reported as “effectively inhibited RPE cell growth”. Also, in assay [1] (single-agent treatment (FIG. 19): dexamethasone 10^−11 to 10^−6M, ATRA 10^−12 to 10^−6M), the RPE cell proliferation entry was “substantially unable to inhibit RPE cell proliferation”. In [3], the “luciferase activity of triple transfectants” value is listed as “modest increase of luciferase activity over the high basal level”. The luciferase reporter activity result with ER-RAR-α, in the assay on ER-RAR-γ and in the assay on ER-RAR-β was “strongly induced luciferase expression” each time. Further, the “cell number after three days” value in [4] is “does not substantially inhibit the growth rate”.

Regarding `N[C@@H](Cc1cc(I)c(Oc2ccc(O)c(I)c2)c(I)c1)C(=O)O` [thyroid hormone, 3,3′,5-triiodothyronine, reference compound], in the assay on rabbits (second study, single agent 100 μg intravitreal), the “retinal detachment compared with control rabbits” value is “does not inhibit retinal detachment”. Besides, the luciferase activity result in the assay on T3R-VP-16 is “slight increase of luciferase activity in a dose dependent manner”. Moreover, in [1] (thyroid hormone alone, 10^−11 to 10^−6M), the RPE cell proliferation result is “refractory to single-agent treatment”.
